PubChem BioAssay AID651648 (Sanford-Burnham Center for Chemical Genomics, 2012)
Active and inactive are the calls of the source. How the calls were made is not given here.

target: CRF-binding protein / CRF-R2 receptor complex (human); assay: activators of CRF-R2 paired with CRF-BP – cell-based, 384-well, SAR follow-up (AID 651648); details: cells expressing CRF-BP/CRF-R2 complex, agonist read-out

SMILES	EC50
CCc1nc2c(c(=O)c3ccccc3n2C)c(=O)n1C1CCCCCC1	4.68 µM
CCOc1ccccc1N(CC(=O)N1CCCCC1)S(=O)(=O)c1ccc(SC)cc1	0.473 µM
CC(=O)Nc1ccc(Sc2ncccc2C(=O)Nc2cccc(OC(F)(F)F)c2)cc1	> 20 µM (inactive)
CCOc1ccccc1N(CC(=O)N1CCOCC1)S(=O)(=O)c1ccccc1	4.77 µM
CC(=O)Nc1ccc(Sc2ncccc2C(=O)Nc2ccccc2F)cc1	> 20 µM (inactive)
Oc1ccc2ccccc2c1CN1CCCCC1	> 20 µM (inactive)
COc1ccc(S(=O)(=O)N(CC(=O)N2CCOCC2)c2ccccc2OC)cc1	> 20 µM (inactive)
Cc1cc(NC(=O)COC(=O)[C@H](Cc2ccccc2)NC(=O)c2ccco2)no1	5.58 µM
CCOC(=O)c1cc2ccccc2n1CCN(CC)CC	> 20 µM (inactive)
CCOc1ccc(S(=O)(=O)N(CC(=O)N2CCOCC2)c2ccccc2)cc1	> 20 µM (inactive)
O=C(Nc1ccc(Br)cc1Cl)c1ccc2c(=O)n3c(nc2c1)CCC3	> 40 µM (inactive)
CCOc1ccc(N(CC(=O)N2CCOCC2)S(=O)(=O)c2ccc(C)cc2)cc1	> 20 µM (inactive)
CCOc1ccc(N(CC(=O)N2CCOCC2)S(=O)(=O)c2ccccc2)cc1	> 20 µM (inactive)
CCOc1cccc(N(CC(=O)N2CCOCC2)S(=O)(=O)c2ccc(OC)cc2)c1	> 20 µM (inactive)
O=C(Nc1cc(S(=O)(=O)N2CCCCC2)ccc1O)c1ccccc1NS(=O)(=O)c1ccc(F)c(F)c1	> 20 µM (inactive)
CCNC(=S)NNC(=O)c1cccn(Cc2ccc(Cl)cc2Cl)c1=O	> 20 µM (inactive)
O=C(NC(=O)c1ccccc1O)c1ccc(C(F)(F)F)cc1	13.6 µM
O=[N+]([O-])c1ccc(O)c(Nc2ncnc3ccc(Br)cc23)c1	> 20 µM (inactive)
COc1ccc(C)cc1NC(=O)c1cccnc1Sc1ccc(NC(C)=O)cc1	> 20 µM (inactive)
O=C1Nc2ccccc2N(O)N1c1cc(-c2cccc(Cl)c2)no1	> 20 µM (inactive)
Cc1sc(NC(=O)C2CCCCC2C(=O)O)c(C(N)=O)c1-c1ccc(C(C)(C)C)cc1 (stereo not drawn)	9.52 µM
Cc1nc2c(c(=O)c3ccccc3n2C)c(=O)n1C1CCCCCC1	> 20 µM (inactive)
CCCCCCc1cc2cc(C(=O)NCc3ccccc3)c(=N)oc2cc1O	> 20 µM (inactive)
CC(Oc1ccc(Br)cc1)C(=O)N1CCc2ccccc21 (stereo not drawn)	> 20 µM (inactive)

SMILES	EC50
COc1ccccc1N(CC(=O)N1CCOCC1)S(=O)(=O)c1ccccc1	> 20 µM (inactive)
CCOc1ccccc1N(CC(=O)N1CCCCCC1)S(=O)(=O)c1ccc(SC)cc1	> 20 µM (inactive)
O=C(O)CCNc1nc(-c2ccccc2)c2cc(Br)ccc2n1	> 20 µM (inactive)
CCOc1ccccc1N(CC(=O)N1CCCC1)S(=O)(=O)c1ccc(SC)cc1	> 20 µM (inactive)
COc1ccc(C(=O)CSc2nnn(-c3cccc(NC(C)=O)c3)n2)cc1	> 20 µM (inactive)
COc1ccc(CCn2c(C(C)C)nc3c(c(=O)c4ccccc4n3C)c2=O)cc1	> 20 µM (inactive)
COc1ccc(NC(=O)c2ccccc2Sc2ccc(NC(C)=O)nc2)cc1	> 20 µM (inactive)
CCOC(=O)N1CCN(C(=O)c2c[nH]c3ccc(S(=O)(=O)N(C)c4cccc(C)c4)cc3c2=O)CC1	2.51 µM
O=C(O)c1ccc(COc2ccccc2C=C2C(=O)c3ccccc3C2=O)cc1	> 20 µM (inactive)
CCOc1ccccc1N(CC(=O)N1CCOCC1)S(=O)(=O)c1cccc(F)c1	4.77 µM
Cc1ccc(S(=O)(=O)NCC(=O)N(CC(=O)NCc2ccco2)Cc2ccccc2)cc1	6.7 µM
CCOc1ccccc1N(CC(=O)N1CCOCC1)S(=O)(=O)c1ccc(SC)cc1	1.47 µM
CCOc1cccc(N(CC(=O)N2CCOCC2)S(=O)(=O)c2ccccc2)c1	> 20 µM (inactive)
O=c1c(/C=C(\O)c2ccc(F)cc2)nc2ccccc2n1-c1ccccc1	9.91 µM
Cc1c(-n2cc(C(=O)c3ccccc3O)cc(C#N)c2=O)c(=O)n(-c2ccccc2)n1C	> 20 µM (inactive)
O=C(Nc1ccc(SC(F)F)cc1)c1ccc2c(=O)n3c(nc2c1)CCC3	> 20 µM (inactive)
CCOc1ccc(N(CC(=O)N2CCOCC2)S(=O)(=O)c2ccc(OC)cc2)cc1	> 20 µM (inactive)
COc1ccc(NC(=O)c2cccnc2Sc2ccc(NC(C)=O)nc2)cc1	> 20 µM (inactive)
CCOc1ccccc1N(CC(=O)N1CCOCC1)S(=O)(=O)c1ccc(OC)cc1	5.85 µM
COc1ccc(C)cc1N(CC(=O)N1CCOCC1)S(=O)(=O)c1ccccc1	10.7 µM
O=C(COC(=O)[C@H](Cc1ccccc1)NC(=O)c1ccco1)NCc1ccccc1	11.3 µM
CC1(C(=O)NC(=S)NNC(=O)c2ccncc2)CCCCC1	5.94 µM
O=C(Nc1cc(Cl)cc(Cl)c1)c1coc(=O)c(Br)c1	> 20 µM (inactive)
CCOc1ccccc1N(CC(=O)N1CCOCC1)S(=O)(=O)c1cccc(Br)c1	1.45 µM

SMILES	EC50
CCOc1ccccc1N(CC(=O)N1CCOCC1)S(=O)(=O)c1ccc(Br)cc1OC(F)(F)F	7.02 µM
CCc1ccccc1N(CC(=O)N1CCOCC1)S(=O)(=O)c1ccc(C)cc1	> 20 µM (inactive)
O=c1c(/C=C(\O)c2ccccc2)nc2ccccc2n1-c1ccccc1	8.1 µM
CCOc1ccccc1N(CC(=O)N1CCOCC1)S(=O)(=O)c1cccc(OC)c1	3.67 µM
CC(=O)Nc1ccc(Sc2ccccc2C(=O)Nc2ccc(F)cc2)cn1	> 20 µM (inactive)
CC(=O)Nc1ccc(Sc2ncccc2C(=O)Nc2cc(C)cc(C)c2)cn1	> 20 µM (inactive)
CC(=O)Nc1ccc(Sc2ncccc2C(=O)Nc2cc(Cl)cc(Cl)c2)cn1	> 20 µM (inactive)
Cc1cccc(Oc2ccc(NC(=O)c3ccccc3C(=O)O)cc2)c1C	> 20 µM (inactive)
COc1ccccc1N(CC(=O)N1CCOCC1)S(=O)(=O)c1ccc(C)cc1	> 20 µM (inactive)
CCOc1ccc(N(CC(=O)N2CCOCC2)S(=O)(=O)c2ccc(SC)cc2)cc1	> 20 µM (inactive)
Cc1ccc2oc(=O)c(/C=C(\O)c3sc(C)nc3C)nc2c1	> 20 µM (inactive)
CC(=O)Nc1cccc(OC(=O)c2ccoc2C)c1	9.4 µM
CC1(C)CSC(=NCc2ccccc2)N1	7.83 µM
CCOc1ccccc1N(CC(=O)N1CCOCC1)S(=O)(=O)c1ccccc1C#N	> 20 µM (inactive)
CC(=O)Nc1ccc(Sc2ncccc2C(=O)Nc2ccc(Br)cc2)cc1	15.5 µM
CCOc1ccccc1N(CC(=O)N1CCOCC1)S(=O)(=O)c1ccc(C)cc1	2.84 µM
O=C(CCn1c2c(c3ccccc31)CCCC2)NNC(=O)c1ccccc1C(=O)O	> 20 µM (inactive)
CSCCC(NC(=O)c1ccco1)C(=O)OC(C)C(=O)NC(=O)NC1CCCCC1 (stereo not drawn)	1.61 µM
CCOc1ccccc1N(CC(=O)N1CCOCC1)S(=O)(=O)c1cc(C(=O)OC)ccc1OC	> 20 µM (inactive)
Cc1cc(S(=O)(=O)c2cc3ccc(O)c(C)c3oc2=O)ccc1F	2.29 µM
Cc1cc(=O)[nH]c(SCC(=O)Nc2ccc(Br)cc2)c1C#N	> 20 µM (inactive)
CCOc1ccccc1N(CC(=O)N1CCOCC1)S(=O)(=O)c1ccc(C#N)cc1	> 20 µM (inactive)
CCCCCn1nc(-c2ccccc2)c2nc3ccccc3nc21	3.16 µM
CC(=O)Nc1ccc(Sc2ncccc2C(=O)Nc2ccc(C(F)(F)F)cc2)cc1	> 20 µM (inactive)

SMILES	EC50
CCOc1ccccc1N(CC(=O)N1CCOCC1)S(=O)(=O)c1ccc(F)cc1	3.78 µM
CC1(C)C(=O)OC(c2cccn2-c2ccc([N+](=O)[O-])cc2)C2(CCCCC2)C1=O (stereo not drawn)	> 20 µM (inactive)
CC(=O)Nc1ccc(Sc2ncccc2C(=O)Nc2ccc(OC(F)(F)F)cc2)cn1	5.32 µM
Cc1ccccc1N(CC(=O)N1CCOCC1)S(=O)(=O)c1ccc(Cl)cc1	> 20 µM (inactive)
CC(=O)Nc1ccc(Sc2ncccc2C(=O)Nc2ccc(F)cc2)cc1	> 20 µM (inactive)
Cc1ccc2nc(NCCC(=O)O)nc(-c3ccccc3)c2c1	> 20 µM (inactive)
CCC1CCCCN1Cc1ccc(OC)c(C)c1 (stereo not drawn)	> 20 µM (inactive)
CC(C)c1nc2c(c(=O)c3ccccc3n2C)c(=O)n1CCc1ccccc1	7.24 µM
CC(=O)Nc1ccc(Sc2ncccc2C(=O)Nc2ccc(F)cc2)cn1	0.953 µM
O=C(CC1CCCCC1)c1c(O)c2ccccc2oc1=O	5.68 µM
O=C(O)c1cc(Cl)ccc1-c1ccc(/C=C/c2cc(C(F)(F)F)[nH]c(=O)n2)o1	5.43 µM
Cc1[nH]n(-c2cccc(Cl)c2)c(=O)c1-c1ccc(Cl)cc1	> 20 µM (inactive)
CCOc1ccccc1N(CC(=O)N1CCC(C)CC1)S(=O)(=O)c1ccc(SC)cc1	> 20 µM (inactive)
CCOc1ccccc1N(CC(=O)N1CCOCC1)S(=O)(=O)c1ccc(OC)cc1OC	> 20 µM (inactive)
CCOC(=O)c1sc(NC(=O)c2cc(-c3ccccc3)nc3ccccc23)c(C#N)c1C	> 20 µM (inactive)
CCOc1ccccc1N(CC(=O)N1CCOCC1)S(=O)(=O)c1ccc(Br)cc1	1.5 µM
CSCCC(NC(=O)c1ccco1)C(=O)N1CC=C(c2ccccc2)CC1 (stereo not drawn)	13.5 µM
COc1ccc(CN2CCCCC2C)cc1C (stereo not drawn)	> 20 µM (inactive)
CC(=O)Nc1ccc(Sc2ncccc2C(=O)Nc2ccc(N(O)O)cc2)cc1	1.96 µM
CC(=O)Nc1ccc(Sc2ncccc2C(=O)Nc2ccccc2Br)cc1	> 20 µM (inactive)
N#Cc1c(-c2ccccc2)cc(-c2ccccc2)nc1SCC(=O)NCC(=O)O	> 20 µM (inactive)
